{"source": "PubChem BioAssay AID250", "about": "(DTP/NCI, 2004)", "test_system": "BDF1 mice, L1210 leukemia sc, survival T/C", "assay": "NCI In Vivo Anticancer Drug Screen. Data for tumor model L1210 Leukemia (subcutaneous) in B6D2F1 (BDF1) mice", "settings": "endpoint: median survival time, higher = longer survival", "method_in_brief": "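Transplantable tumor-bearing mice; survival or tumor size recorded; result = T/C, treated vs vehicle control.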", "key": {"[1]": {"settings": "dose: 108.0 mg/kg/injection, schedule: Q01DX Z (sc), vehicle: methylcellulose (MC)"}, "[2]": {"settings": "dose: 180.0 mg/kg/injection, schedule: Q01DX Z (sc), vehicle: methylcellulose (MC)"}, "[3]": {"settings": "dose: 300.0 mg/kg/injection, schedule: Q01DX Z (sc), vehicle: methylcellulose (MC)"}, "[4]": {"settings": "dose: 39.0 mg/kg/injection, schedule: Q01DX Z (sc), vehicle: saline"}, "[5]": {"settings": "dose: 65.0 mg/kg/injection, schedule: Q01DX Z (sc), vehicle: saline"}, "[6]": {"settings": "dose: 180.0 mg/kg/injection, schedule: Q01DX Z (sc), vehicle: saline"}, "[7]": {"settings": "dose: 300.0 mg/kg/injection, schedule: Q01DX Z (sc), vehicle: saline"}}, "note": "Values joined by “and” are separate entries in the source; they are usually repeats but may differ in a detail not shown here. Identical values can stand only once. Toxic doses and inconclusive results are not listed."}
{"smiles": "CCSc1ncnc2nc[nH]c12", "values": [{"measurement": "T/C", "setting": "dose: 38.9 mg/kg/injection, schedule: Q01DX Z (sc), vehicle: methylcellulose (MC)", "value": "100 % of control"}, {"measurement": "T/C", "setting": "dose: 64.8 mg/kg/injection, schedule: Q01DX Z (sc), vehicle: methylcellulose (MC)", "value": "100 % of control"}, {"measurement": "T/C", "setting": "[1]", "value": "110 % of control"}, {"measurement": "T/C", "setting": "[2]", "value": "100 % of control"}, {"measurement": "T/C", "setting": "[3]", "value": "110 % of control"}]}
{"smiles": "O=c1[nH]c(=O)n(C2CC(O)C(CO)O2)cc1F", "note": "(stereo not given)", "values": [{"measurement": "T/C", "setting": "dose: 4.0 mg/kg/injection, schedule: Q01DX Z (sc), vehicle: saline", "value": "100 % of control"}, {"measurement": "T/C", "setting": "dose: 5.0 mg/kg/injection, schedule: Q01DX009 (ip), vehicle: water", "value": "100 % of control"}, {"measurement": "T/C", "setting": "dose: 5.0 mg/kg/injection, schedule: Q01DX009 (sc), vehicle: water", "value": "101 % of control"}, {"measurement": "T/C", "setting": "dose: 8.0 mg/kg/injection, schedule: Q01DX Z (sc), vehicle: saline", "value": "100 % of control"}, {"measurement": "T/C", "setting": "dose: 10.0 mg/kg/injection, schedule: Q01DX009 (ip), vehicle: water", "value": "97 % of control"}, {"measurement": "T/C", "setting": "dose: 10.0 mg/kg/injection, schedule: Q01DX009 (sc), vehicle: water", "value": "98 % of control"}, {"measurement": "T/C", "setting": "dose: 16.0 mg/kg/injection, schedule: Q01DX Z (sc), vehicle: saline", "value": "111 % of control"}, {"measurement": "T/C", "setting": "dose: 20.0 mg/kg/injection, schedule: Q01DX009 (ip), vehicle: water", "value": "101 % of control"}, {"measurement": "T/C", "setting": "dose: 20.0 mg/kg/injection, schedule: Q01DX009 (sc), vehicle: water", "value": "104 % of control"}, {"measurement": "T/C", "setting": "dose: 23.0 mg/kg/injection, schedule: Q01DX Z (sc), vehicle: saline", "value": "100 % of control"}, {"measurement": "T/C", "setting": "dose: 23.3 mg/kg/injection, schedule: Q01DX Z (sc), vehicle: saline", "value": "104 % of control"}, {"measurement": "T/C", "setting": "dose: 32.0 mg/kg/injection, schedule: Q01DX Z (sc), vehicle: saline", "value": "111 % of control"}, {"measurement": "T/C", "setting": "dose: 38.9 mg/kg/injection, schedule: Q01DX Z (sc), vehicle: saline", "value": "91 % of control"}, {"measurement": "T/C", "setting": "[4]", "value": "100 % of control"}, {"measurement": "T/C", "setting": "dose: 40.0 mg/kg/injection, schedule: Q01DX009 (ip), vehicle: water", "value": "110 % of control"}, {"measurement": "T/C", "setting": "dose: 40.0 mg/kg/injection, schedule: Q01DX009 (sc), vehicle: water", "value": "121 % of control"}, {"measurement": "T/C", "setting": "dose: 50.0 mg/kg/injection, schedule: Q01DX009 (sc), vehicle: water", "value": "100 % of control"}, {"measurement": "T/C", "setting": "dose: 64.0 mg/kg/injection, schedule: Q01DX Z (sc), vehicle: saline", "value": "105 % of control"}, {"measurement": "T/C", "setting": "dose: 64.8 mg/kg/injection, schedule: Q01DX Z (sc), vehicle: saline", "value": "100 % of control"}, {"measurement": "T/C", "setting": "[5]", "value": "100 % of control and 105 % of control"}, {"measurement": "T/C", "setting": "dose: 80.0 mg/kg/injection, schedule: Q01DX009 (ip), vehicle: water", "value": "124 % of control"}, {"measurement": "T/C", "setting": "dose: 100.0 mg/kg/injection, schedule: Q01DX009 (sc), vehicle: water", "value": "110 % of control"}, {"measurement": "T/C", "setting": "dose: 200.0 mg/kg/injection, schedule: Q01DX009 (sc), vehicle: water", "value": "150 % of control"}, {"measurement": "T/C", "setting": "dose: 256.0 mg/kg/injection, schedule: Q01DX Z (sc), vehicle: saline", "value": "161 % of control"}, {"measurement": "T/C", "setting": "dose: 400.0 mg/kg/injection, schedule: Q01DX009 (sc), vehicle: water", "value": "153 % of control"}]}
{"smiles": "O=c1[nH]c(=O)n(C2OC(CO)C(O)C2O)cc1Br", "note": "(stereo not given)", "values": [{"measurement": "T/C", "setting": "[4]", "value": "100 % of control"}, {"measurement": "T/C", "setting": "[5]", "value": "100 % of control"}, {"measurement": "T/C", "setting": "dose: 108.0 mg/kg/injection, schedule: Q01DX Z (sc), vehicle: saline", "value": "100 % of control"}, {"measurement": "T/C", "setting": "[6]", "value": "94 % of control and 100 % of control"}, {"measurement": "T/C", "setting": "[7]", "value": "100 % of control and 105 % of control"}, {"measurement": "T/C", "setting": "dose: 500.0 mg/kg/injection, schedule: Q01DX Z (sc), vehicle: saline", "value": "94 % of control and 100 % of control"}, {"measurement": "T/C", "setting": "dose: 833.0 mg/kg/injection, schedule: Q01DX Z (sc), vehicle: saline", "value": "105 % of control"}, {"measurement": "T/C", "setting": "dose: 1388.0 mg/kg/injection, schedule: Q01DX Z (sc), vehicle: saline", "value": "94 % of control"}]}
{"smiles": "O=C(O)c1cc(=O)[nH]c(=O)[nH]1", "values": [{"measurement": "T/C", "setting": "[5]", "value": "100 % of control"}, {"measurement": "T/C", "setting": "[6]", "value": "100 % of control"}, {"measurement": "T/C", "setting": "[7]", "value": "100 % of control"}]}
{"smiles": "O=C(Nc1ccc(C2=NCCN2)cc1)c1ccc(C(=O)Nc2ccc(C3=NCCN3)cc2)c(NC(=O)c2ccc(C(=O)Nc3cc(C(=O)Nc4ccc(C5=NCCN5)cc4)ccc3C(=O)Nc3ccc(C4=NCCN4)cc3)cc2)c1", "values": [{"measurement": "T/C", "setting": "dose: 23.0 mg/kg/injection, schedule: Q01DX Z (sc), vehicle: water", "value": "110 % of control"}, {"measurement": "T/C", "setting": "dose: 39.0 mg/kg/injection, schedule: Q01DX Z (sc), vehicle: water", "value": "100 % of control"}, {"measurement": "T/C", "setting": "dose: 65.0 mg/kg/injection, schedule: Q01DX Z (sc), vehicle: water", "value": "100 % of control"}, {"measurement": "T/C", "setting": "dose: 108.0 mg/kg/injection, schedule: Q01DX Z (sc), vehicle: water", "value": "100 % of control"}, {"measurement": "T/C", "setting": "dose: 180.0 mg/kg/injection, schedule: Q01DX Z (sc), vehicle: water", "value": "100 % of control"}, {"measurement": "T/C", "setting": "dose: 300.0 mg/kg/injection, schedule: Q01DX Z (sc), vehicle: water", "value": "100 % of control"}]}
{"smiles": "CC(=O)NC1=C(N2CC2)C(=O)C(NC(C)=O)=C(N2CC2)C1=O", "values": [{"measurement": "T/C", "setting": "dose: 1.08 mg/kg/injection, schedule: Q01DX Z (sc), vehicle: saline", "value": "213 % of control"}, {"measurement": "T/C", "setting": "dose: 1.8 mg/kg/injection, schedule: Q01DX Z (sc), vehicle: saline", "value": "163 % of control"}, {"measurement": "T/C", "setting": "dose: 5.0 mg/kg/injection, schedule: Q01DX Z (sc), vehicle: saline", "value": "118 % of control"}, {"measurement": "T/C", "setting": "dose: 8.4 mg/kg/injection, schedule: Q01DX Z (sc), vehicle: saline", "value": "109 % of control"}]}
{"smiles": "CN(C)[C@@H]1C(=O)C(C(=O)NCc2nc3[nH]cnc(=S)c3[nH]2)=C(O)[C@@]2(O)C(=O)C3=C(O)c4c(O)cccc4[C@@](C)(O)[C@H]3C[C@@H]12", "values": [{"measurement": "T/C", "setting": "dose: 65.0 mg/kg/injection, schedule: Q01DX Z (sc), vehicle: methylcellulose (MC)", "value": "100 % of control"}, {"measurement": "T/C", "setting": "[1]", "value": "100 % of control"}, {"measurement": "T/C", "setting": "[2]", "value": "100 % of control"}, {"measurement": "T/C", "setting": "[3]", "value": "105 % of control"}, {"measurement": "T/C", "setting": "dose: 500.0 mg/kg/injection, schedule: Q01DX Z (sc), vehicle: methylcellulose (MC)", "value": "175 % of control"}]}
{"smiles": "OC(CBr)C(O)C(O)C(O)CBr", "note": "(stereo not given)", "values": [{"measurement": "T/C", "setting": "dose: 108.0 mg/kg/injection, schedule: Q01DX009 (ip), vehicle: steriod suspending solution", "value": "105 % of control"}, {"measurement": "T/C", "setting": "dose: 108.0 mg/kg/injection, schedule: Q01DX009 (sc), vehicle: steriod suspending solution", "value": "100 % of control"}, {"measurement": "T/C", "setting": "dose: 180.0 mg/kg/injection, schedule: Q01DX009 (ip), vehicle: steriod suspending solution", "value": "116 % of control"}, {"measurement": "T/C", "setting": "dose: 180.0 mg/kg/injection, schedule: Q01DX009 (sc), vehicle: steriod suspending solution", "value": "111 % of control"}, {"measurement": "T/C", "setting": "dose: 180.0 mg/kg/injection, schedule: Q04DX003 (ip), vehicle: steriod suspending solution", "value": "100 % of control"}, {"measurement": "T/C", "setting": "dose: 180.0 mg/kg/injection, schedule: Q04DX003 (sc), vehicle: steriod suspending solution", "value": "105 % of control"}, {"measurement": "T/C", "setting": "dose: 300.0 mg/kg/injection, schedule: Q01DX009 (ip), vehicle: steriod suspending solution", "value": "122 % of control"}, {"measurement": "T/C", "setting": "dose: 300.0 mg/kg/injection, schedule: Q01DX009 (sc), vehicle: steriod suspending solution", "value": "116 % of control"}, {"measurement": "T/C", "setting": "dose: 300.0 mg/kg/injection, schedule: Q04DX003 (ip), vehicle: steriod suspending solution", "value": "111 % of control"}, {"measurement": "T/C", "setting": "dose: 300.0 mg/kg/injection, schedule: Q04DX003 (sc), vehicle: steriod suspending solution", "value": "111 % of control"}, {"measurement": "T/C", "setting": "dose: 500.0 mg/kg/injection, schedule: Q01DX009 (sc), vehicle: steriod suspending solution", "value": "155 % of control"}, {"measurement": "T/C", "setting": "dose: 500.0 mg/kg/injection, schedule: Q04DX003 (ip), vehicle: steriod suspending solution", "value": "100 % of control"}, {"measurement": "T/C", "setting": "dose: 500.0 mg/kg/injection, schedule: Q04DX003 (sc), vehicle: steriod suspending solution", "value": "105 % of control"}, {"measurement": "T/C", "setting": "dose: 833.0 mg/kg/injection, schedule: Q04DX003 (ip), vehicle: steriod suspending solution", "value": "122 % of control"}, {"measurement": "T/C", "setting": "dose: 833.0 mg/kg/injection, schedule: Q04DX003 (sc), vehicle: steriod suspending solution", "value": "122 % of control"}, {"measurement": "T/C", "setting": "dose: 1388.0 mg/kg/injection, schedule: Q01DX009 (sc), vehicle: other", "value": "111 % of control"}, {"measurement": "T/C", "setting": "dose: 1388.0 mg/kg/injection, schedule: Q01DX009 (sc), vehicle: steriod suspending solution", "value": "110 % of control"}, {"measurement": "T/C", "setting": "dose: 1388.0 mg/kg/injection, schedule: Q01DX015 (sc), vehicle: other", "value": "110 % of control"}, {"measurement": "T/C", "setting": "dose: 1388.0 mg/kg/injection, schedule: Q01DX015 (sc), vehicle: steriod suspending solution", "value": "110 % of control"}]}
